In one data set the test system is HeLa cells. Briefly: MTT cytotoxicity assay, HeLa. The class given is cell-based. The settings on record: Homo sapiens, 24 h, read-out: IC50, Cervix, HeLa. How it is done: In the first step of the study, we analyzed the cytotoxicity of novel soloxolone derivatives 1–12 in a panel of tumor cells, including human cervical carcinoma HeLa, human duodenal carcinoma HuTu-80 and murine melanoma B16 cells, as well as human non-transformed hFF3 foreskin fibroblasts. The cells were treated with derivatives for 24 h and cell viability was evaluated by 3-(4,5-dimethylthiazol-2-yl)-2,5-diphenyltetrazolium bromide (MTT) assay. SM was used as the reference compound.
The cells in the exponential growth phase were seeded in quadruplicate in 96-well plates at a density of 1 × 10^4 cells/well for HeLa, U87, U118, KELLY and Neuro2a cells; 1.5 × 10^4 cells/well for HuTu-80 cells; 2 × 10^4 cells/well for B16 cells; and 7 × 10^3 cells/well for hFF3 fibroblasts. Cells were incubated under standard conditions overnight followed by their treatment with the investigated compounds (1–20 µM) for 24 h. Then, 10 µL of MTT solution was added to the cells to a final concentration of 0.5 mg/mL and plates were placed under standard conditions for 3 h followed by an aspiration of MTT-containing medium and a dissolution of formazan crystals with 100 µL of DMSO. The absorbance of each well was read at test and reference wavelengths of 570 and 620 nm, respectively, on a Multiscan RC plate reader (Thermo LabSystems, Helsinki, Finland).

For a further data set, the system named is U87 glioblastoma cells. Briefly: Annexin V-APC/PI apoptosis assay, U87. Format: cell-based, human. The note with it: for U87 Q4-2 (right upper quadrant, late apoptotic cells): 24 h, control 5.9%. Here is the method: To evaluate which form of cell death was induced by compound 12 in glioblastoma cells, its ability to stimulate apoptosis, necrosis or autophagy was examined.
To quantify the percentage of cells undergoing apoptosis, glioblastoma U87 and U118 cells were seeded in 6-well plates at 2.8 × 10^5 cells/well in complete growth medium and incubated at standard conditions overnight followed by treatment with 12 at 4 µM for 24 h. Thereafter, the cells were harvested by trypsinization (TrypLE Express (Gibco, USA)) and centrifugation at 400 g for 5 min, washed with PBS and stained with 5 µL of Annexin V-APC (Sony Biotechnology Inc., San Jose, CA, USA) and 10 µL of propidium iodide (PI) (Invitrogen, Waltham, MA, USA) for 15 min at room temperature in the dark. After the incubation time, the cells were analyzed using a NovoCyte Flow Cytometer (ACEA Biosciences Inc., San Diego, CA, USA). For each sample, 10,000 events were acquired.

Data set [1] deals with U118 cells. Briefly: Autophagy, MDC staining, U118. The settings on record: 24 h. The class given is cell-based, human. Here is the method:
Given that pentacyclic triterpenoids can induce tumor cell death not only by the apoptotic pathway but also by triggering autophagy, we next studied whether 12 stimulated autophagy in glioblastoma cells. For this, U87 and U118 cells were incubated with tryptamide 12 at toxic concentrations (2 or 4 µM) for 24 h followed by cell staining with monodansylcadaverine (MDC), a fluorescent dye specifically labeling autophagosomes. […] Considering that autophagy can be associated not only with cell death but also with cytoprotection, its role in the cytotoxicity of 12 in glioblastoma cells was further studied.
To evaluate the ability of 12 to induce autophagy, U87 and U118 cells were seeded at 2.8 × 10^5 cells/well in 6-well plates and incubated under standard conditions overnight followed by their treatment with 12 in amounts of 2 and 4 μM for 24 h. Then, the cells were collected and washed with PBS as described above and resuspended in 500 µL of PBS containing monodancylcadaverine (MDC) at 50 μM. After incubation for 15 min under standard conditions, the cells were washed with PBS and analyzed by flow cytometry. For each sample, 10,000 events were acquired.

In data set [2] the test system is U118 cells. Description: Colony formation assay, U118. Format: cell-based, human. The note with it: 14 days. Here is the method: To evaluate the antitumor potential of 12 more comprehensively, its effects at non-toxic concentrations (25–500 nM; cell survival of ≥90%) on a range of metastatic-related processes in glioblastoma cells were studied. Firstly, we investigated the inhibitory activity of 12 on the clonogenic capacity of tumor cells in vitro, which reflects their ability to form colonies from single cells which characterizes the stemness of tumor cells and plays a crucial role in metastasis.
U118 cells were seeded in 96-well plates in six replicates at a density of 200 cells/well and treated with 12 at 25–500 nM for 14 days under standard conditions. The culture media were replaced with fresh media containing corresponding concentrations of 12 every 6 days. After the incubation time, cell colonies were fixed with 4% paraformaldehyde, stained with crystal violet dye (0.1% w/v) and photographed using the iBright 1500 Imaging System (Invitrogen, USA). The percentage of area covered by cell colonies was computed using the ColonyArea ImageJ plugin [95].

The subject of data set [3] is U118 cells. Briefly: Trans-well motility (CIM-Plate, xCELLigence). The settings on record: U118, 12 at 100 nM, starting after 20 h. Format: cell-based, human. Here is the method:
To evaluate the ability of tryptamide 12 to suppress the migration potential of glioblastoma cells, two independent approaches were undertaken, including assessment of cell movement on a 2D surface (scratch assay) and through a trans-well membrane (CIM-Plate).
To assess the trans-well motility of glioblastoma cells, U118 cells were seeded in quadruplicate at 2 × 10^4 cells/well in the upper chamber of a CIM-Plate in FBS-free DMEM in the presence or absence of 12 at 100 nM. To induce trans-well motility of the cells, DMEM containing 10% FBS was placed in the lower chamber of the CIM-Plate. After that, the electrical impedance of the sensor electrodes mounted at the lower side of the porous membrane separating the upper and lower chambers of the CIM-plate was further measured using an xCELLigence RTCA DP instrument (ACEA Biosciences Inc., San Diego, CA, USA) every 1 h for 48 h.

Data set [4] in a line: Toxicity assessment (body weight, organ indexes). Format: in vivo, Balb/C nude mice. Here is the method: (seven injections were performed in total) and brain tissue was collected 48 h after the last injection of 12 followed by a high-performance liquid chromatography–tandem mass spectrometry (HPLC–MS/MS) analysis of the obtained samples (Figure 3D). This treatment regimen was chosen due to its common usage in the evaluation of antitumor activity of various low-molecular weight compounds in xenograft murine models. […] Before the HPLC–MS/MS analysis, chromatographic conditions and mass spectrometer parameters for detecting both semisynthetic triterpenoid 12 and the internal standard in the multiple reaction monitoring (MRM) mode were optimized. The optimized parameters are given in Supplementary Table S1.
During the experiment, the general status of the animals and body weight was monitored. At the end of the experiment, organs were collected and organ indexes were calculated as (organ weight/body weight) × 100%.

In the case of `CC1(C)C(=O)C(C#N)=C[C@]2(C)C3=CC(=O)[C@@H]4[C@@H]5C[C@@](C)(C(=O)NCCc6c[nH]c7ccccc67)CC[C@]5(C)CC[C@@]4(C)[C@]3(C)CC[C@@H]12` [compound 12], the IC50 in the data set with HeLa cells amounted to 1500 ± 100 nM. Also, the entries for the “U87 Q4-2 (right upper quadrant, late apoptotic cells)” value with U87 glioblastoma cells (12 at 2 µM) and in the data set with U87 glioblastoma cells (12 at 4 µM) were 28% and 73.4%, respectively. For the same molecule, the “necrotic cell death (left upper quadrant)” value in the data set on U87 glioblastoma cells (U87, 12 for 24 h) was “did not cause necrotic cell death”. Besides, the “MDC-positive cells, U118” value is 8.55% with U118 cells [1] (12 at 2 µM) and 8.02% with U118 cells [1] (12 at 4 µM). The “reduction in the area of cell colonies compared to the control” value in the data set on U118 cells [2] (U118, 12 at 200 nM) is reported as 1.4 fold; with U118 cells [2] (U118, 12 at 500 nM), 2 fold. Also, the “ability of cells to cross the porous membrane of the CIM-Plate” value in the data set with U118 cells [3] is listed as “significantly suppressed”. In data set [4] (U87 glioblastoma-bearing mice, 20 mg/kg i.p.), the “organ indexes in experimental and control groups” value is listed as “did not reveal significant differences”. Further, the “mouse body weight compared to untreated mice” value in data set [4] (nude mice, 50 mg/kg i.p., thrice a week for two weeks) was “did not reveal significant changes”.

For orientation: IC50 means the midpoint of a concentration-inhibition curve.

(Values after publication PMC9145754, “Novel Soloxolone Amides as Potent Anti-Glioblastoma Candidates: Design, Synthesis, In Silico Analysis and Biological Activities In Vitro and In Vivo” (Pharmaceuticals, 2022).)
